{
  "source": "paper PMC12232376",
  "about": "“A Lysozyme-Derived Peptide Induces GLP‑1 Secretion in Mouse Jejunal Organoids and Modulates Glycemia in Rats” (Journal of Agricultural and Food Chemistry, 2025)",
  "key": {"CCK gene expression [1]": {"tested_on": "CCK gene expression", "assay": "Relative CCK gene expression in organoids (qPCR)", "assay_type": "cell-based, mouse", "conditions": "peptide 1 mM (induced at 60 min), Phe 20 mM (induced from 30 min), versus control", "method": "(§1) For RNA isolation, frozen STC-1 cells or organoids were homogenized in QIAzol, and total RNA was isolated using the miRNeasy Mini Kit (Qiagen, Hilden, Germany). Total RNA was quantified in a NanoDrop 2000 spectrophotometer (Thermo Scientific, MA, USA). According to the instructions, total RNA was reverse transcribed to cDNA using a Script II RT Kit (Qiagen, Hilden, Germany). RNA expression levels were determined in duplicate by quantitative real-time PCR (qPCR) on a 7900HT Real-Time PCR System (Applied Biosystems), using miScript SYBR Green PCR Kits (Qiagen, Hilden, Germany).\n(§2) Amplification was initiated at 50 °C for 2 min and at 95 °C for 10 min, followed by 40 cycles of 95 °C for 15 s and 60 °C for 1 min. The following specific oligonucleotides were used: for cholecystokinin (CCK) forward (F) 5′-[…]-3′ and reverse (R) 5′-[…]-3′; for GLP-1 (F) 5′-[…]-3′ and (R) 5′-[…]-3′; for peptide YY (PYY) (F) 5′-[…]-3′ and (R) 5′-[…]-3′; and for reference gene β-actin (F) 5′-[…]-3′ and (R) 5′-[…]-3′. The relative expression levels of the target gene were calculated using the comparative critical threshold method (2^–ΔΔCt), by normalizing the data to the expression of β-actin."}, "PYY gene expression [2]": {"tested_on": "PYY gene expression", "assay": "Relative PYY gene expression in organoids (qPCR)", "assay_type": "cell-based, mouse", "conditions": "organoids, 10, 30, 60 min; EWD 2 mg/mL, Phe 20 mM, peptide 1 mM", "method": "as §1, §2"}, "PYY gene expression [3]": {"tested_on": "PYY gene expression", "assay": "Relative PYY gene expression in STC-1 cells (qPCR)", "assay_type": "cell-based", "conditions": "60 min, Phe 20 mM", "method": "(§3) Cells were cultured at 37 °C, 5% CO2, and a humidified atmosphere for 48 h into 24-well plates at a density of 3 × 10^5 cells per well.\nas §1, §2"}, "p-IRS": {"tested_on": "p-IRS", "assay": "Immunoblotting p-IRS/IRS in STC-1 cells", "assay_type": "cell-based", "conditions": "peptide 1 mM, EWD 2 mg/mL, Phe 20 mM, 5, 15, 30, 60 min, immunoblot", "method": "[…]; then, cells were lysed with RIPA buffer, and ERK1/2, p-ERK1/2, AMPK, p-AMPK, p-IRS-1, IRS-1, glyceraldehyde-3-phosphate dehydrogenase (GAPDH), and heat shock protein (HSP90) contents were examined using immunoblotting. Protein samples were lysed, separated on 10% SDS-polyacrylamide gels, and the separated proteins were electroblotted from the gel onto nitrocellulose membranes ([…], Millipore, MA, USA) and blocked with skim milk for 30 min at room temperature. Membranes were incubated with primary antibodies overnight at 4 °C. After incubation, membranes were exposed to secondary antibodies for 45 min at room temperature. Blots were rinsed three times with Tris-buffered saline with Tween 20, pH 8.0, after each incubation step and visualized using an Odyssey infrared imaging system (LI-COR, Lincoln, NE, USA)."}, "CCK gene expression [4]": {"tested_on": "CCK gene expression", "assay": "Relative CCK gene expression in STC-1 cells (qPCR)", "assay_type": "cell-based", "conditions": "60 min, Phe 20 mM", "method": "as §3, §1, §2"}, "mouse jejunal organoids": {"tested_on": "mouse jejunal organoids", "assay": "GLP-1 secretion in mouse jejunal organoids (GLP-1 Active ELISA of supernatants)", "assay_type": "cell-based", "conditions": "Phe 20 mM, peptide 1 mM, n = 3", "method": "Mouse intestinal organoids (enteroids) were derived from adult intestinal stem cells (ISCs). Intestinal crypts were isolated from the jejunum of male and female wild-type mice following the protocol provided by STEMCELL Technologies. Crypts were cultured at 37 °C until organoids were fully developed (5–7 days). Intestinal organoids were suspended in 10 mL of cold DMEM/F12 (Lonza, Basel, Switzerland), and the crypts were suspended in a mixture (50:50) of Matrigel (Corning, NY, USA) and complete IntestiCult Organoid Growth Medium (STEMCELL Technologies, Vancouver, Canada). This mix was gently placed in the center of each well of a prewarmed 24-well plate until the Matrigel solidified and formed a dome. IntestiCult Organoid Growth Medium (STEMCELL Technologies, Vancouver, Canada) was added, and crypts were cultured at 37 °C and 5% CO2 until organoids were developed. After 7 days, the mouse intestinal organoids were passed following the STEMCELL Technologies protocol. The experiments were performed from passage numbers 1 to 6.\n(§4) After hormonal secretion studies, GLP-1_7–36NH2 was measured in the supernatants of cells or organoids in duplicate with the commercial immunoassay Glucagon-Like Peptide-1 Active ELISA (Merck KGaA, Darmstadt, Germany), according to the manufacturer’s instructions."}, "STC-1 cells [5]": {"tested_on": "STC-1 cells", "assay": "GLP-1 secretion in STC-1 cells (GLP-1 Active ELISA of supernatants)", "assay_type": "cell-based", "conditions": "Phe 20 mM, peptide 1 mM, n = 3", "method": "STC-1 cells supplied by ATCC (ATCC CRL-3254, Manassas, VA, USA) were cultured in Dulbecco’s Modified Eagle’s Medium (ATCC, Manassas, VA, USA) supplemented with 100 U/mL penicillin, 100 mg/L streptomycin, 0.25 μg/mL amphotericin (Lonza Group, Basel, Switzerland), and 10% fetal bovine serum (ATCC, Manassas, VA, USA). Cells were incubated at 37 °C in a 5% CO2 humidified atmosphere, and once they reached 80% confluence, they were trypsinized and seeded according to each cell study. The experiments were performed from passage numbers 31–35.\nas §3, §4"}, "[6]": {"tested_on": "proglucagon gene expression", "assay": "Relative proglucagon gene expression in organoids (qPCR)", "assay_type": "cell-based, mouse", "conditions": "10 min, Phe 20 mM, 2^-ΔΔCt normalised to β-actin, versus control", "method": "as §1, §2"}, "STC-1 cells [7]": {"tested_on": "STC-1 cells", "conditions": "earlier screening in STC-1; ref authors' previous study (number not given); cited from earlier work", "method": "Later, other authors, using the enteroendocrine cell line STC-1, have related the GLP-1-inducing effect to peptides of molecular mass between […], and it was shown that peptides present a greater induc ... || There is little information about the structural features necessary to induce secretion by enteroendocrine cells of GLP-1. The organoid cellular media collected at 60 min were analyzed by HPLC–MS/MS in order to assess the possible proteolysis of the assayed peptides during the incubation. The small intestine brush border has different enzymes, oligopeptidases, lipases, and carbohydrases that contribute to nutrient hydrolysis and absorption. Other authors have described that enterocytes present in mouse intestinal organoids have mature brush borders, with the presence of their typical enzymes, ..."}, "[8]": {"tested_on": "mouse intestinal organoids", "protocol": "On the day of the experiment, the medium was discarded, and the Matrigel was removed with cold PBS. Next, the organoids were centrifuged for 3 min at 300 × g, the medium was discarded, and after three washes, the organoids were resuspended in saline buffer (20 mM HEPES 1 M, 1 mM glucose, 140 mM NaCl, 4.5 mM KCl, 1.2 mM CaCl2, 1.2 mM MgCl2, 0.1% BSA, pH 7.4). The organoids were incubated for 40 min at 37 °C in this buffer. These organoids were resuspended in a new saline buffer and transferred to 96-well plates at a 60 organoids per well-ratio. The samples (EWD at 2 mg/mL, Phe at 20 mM, and synthetic peptide at 1 mM) were diluted in saline buffer, added to the well, and assayed in triplicate. […] After 10, 30, and 60 min, the plate was centrifuged for 3 min at 300 × g, supernatants were collected, organoids were lysed with QIAzol (Qiagen, Hilden, Germany), and samples were stored at −80 °C for further analysis.\nThe percentage of each sequence was calculated relative to the total area in each sample."}},
  "note": "Where no end group is shown, it is not given here.",
  "data": [
    {"compound": "N[C@@H](Cc1ccccc1)C(=O)O", "note": "[Phe, Phenylalanine]", "values": [
      {"measurement": "CCK gene expression, maximum fold change", "setting": "CCK gene expression [1]", "result": 2.8, "unit": "fold change"},
      {"measurement": "PYY gene expression versus control, in words", "setting": "PYY gene expression [2]", "result": "an effect of both the peptide and Phe was observed at 10 min, with Phe keeping the increased expression at 30 min"},
      {"measurement": "PYY gene overexpression", "setting": "PYY gene expression [3]", "result": 2, "unit": "fold"},
      {"measurement": "p-IRS expression versus control, in words", "setting": "p-IRS", "result": "p-IRS overexpression at all time points"},
      {"measurement": "CCK gene overexpression", "setting": "CCK gene expression [4]", "result": 4, "unit": "fold"},
      {"measurement": "GLP-1 release in organoids versus control, in words", "setting": "mouse jejunal organoids; 10, 30 and 60 min, EWD 2 mg/mL", "result": "faster GLP-1 induction was observed in the case of Phe (10 min)"},
      {"measurement": "GLP-1 release in organoids", "setting": "mouse jejunal organoids; 60 min, 60 organoids per well in saline buffer pH 7.4, 37 °C, ELISA, mean ± SEM", "result": "43.7 ± 1", "unit": "pM"},
      {"measurement": "GLP-1 release in STC-1 cells versus control, in words", "setting": "STC-1 cells [5]; 10, 30 and 60 min, EWD 2 mg/mL", "result": "only reached significance after incubation with the peptide or Phe for 60 min"},
      {"measurement": "GLP-1 induced in STC-1 cells", "setting": "STC-1 cells [5]; HEPES buffer pH 7.4, time not printed at the place (60 min by b40), ELISA, mean ± SEM", "result": "416.6 ± 40.1", "unit": "pM"},
      {"measurement": "Relative proglucagon gene expression", "setting": "[6]", "result": 1.8, "unit": "fold change"}
    ]},
    {"compound": "IRGCRL [124IRGCRL129, hexapeptide, shorter form of 123WIRGCRL129 found in organoid supernatants]", "values": [
      {"measurement": "GLP-1 secretion in STC-1 cells, in words", "setting": "STC-1 cells [7]", "result": "induce GLP-1 in STC-1, although at lower levels than the tryptophan-containing precursor peptide"}
    ]},
    {"compound": "WARGCRL [WARGCRL]", "values": [
      {"measurement": "Susceptibility to peptidases in organoids, in words", "setting": "[8]", "result": "most susceptible sequences to the action of peptidases"}
    ]},
    {"compound": "WIRACRL [WIRACRL]", "values": [
      {"measurement": "Susceptibility to peptidases in organoids, in words", "setting": "[8]", "result": "most susceptible sequences to the action of peptidases"}
    ]},
    {"compound": "WIRGARL [WIRGARL]", "values": [
      {"measurement": "Susceptibility to peptidases in organoids, in words", "setting": "[8]", "result": "most susceptible sequences to the action of peptidases"}
    ]}
  ]
}
